Assay results: US20040156869A1, “2-substituted quinazolin-4-ylamine analogues” (Neurogen Corporation, priority 2002, published 2004)

Biological target: human capsaicin receptor (VR1) (Homo sapiens, UniProt Q8NER1)
Test: Capsaicin receptor binding assay ([3H]RTX competition, VR1-transfected HEK293 membranes)

human capsaicin receptor (VR1), sequence (Q8NER1 whole entry): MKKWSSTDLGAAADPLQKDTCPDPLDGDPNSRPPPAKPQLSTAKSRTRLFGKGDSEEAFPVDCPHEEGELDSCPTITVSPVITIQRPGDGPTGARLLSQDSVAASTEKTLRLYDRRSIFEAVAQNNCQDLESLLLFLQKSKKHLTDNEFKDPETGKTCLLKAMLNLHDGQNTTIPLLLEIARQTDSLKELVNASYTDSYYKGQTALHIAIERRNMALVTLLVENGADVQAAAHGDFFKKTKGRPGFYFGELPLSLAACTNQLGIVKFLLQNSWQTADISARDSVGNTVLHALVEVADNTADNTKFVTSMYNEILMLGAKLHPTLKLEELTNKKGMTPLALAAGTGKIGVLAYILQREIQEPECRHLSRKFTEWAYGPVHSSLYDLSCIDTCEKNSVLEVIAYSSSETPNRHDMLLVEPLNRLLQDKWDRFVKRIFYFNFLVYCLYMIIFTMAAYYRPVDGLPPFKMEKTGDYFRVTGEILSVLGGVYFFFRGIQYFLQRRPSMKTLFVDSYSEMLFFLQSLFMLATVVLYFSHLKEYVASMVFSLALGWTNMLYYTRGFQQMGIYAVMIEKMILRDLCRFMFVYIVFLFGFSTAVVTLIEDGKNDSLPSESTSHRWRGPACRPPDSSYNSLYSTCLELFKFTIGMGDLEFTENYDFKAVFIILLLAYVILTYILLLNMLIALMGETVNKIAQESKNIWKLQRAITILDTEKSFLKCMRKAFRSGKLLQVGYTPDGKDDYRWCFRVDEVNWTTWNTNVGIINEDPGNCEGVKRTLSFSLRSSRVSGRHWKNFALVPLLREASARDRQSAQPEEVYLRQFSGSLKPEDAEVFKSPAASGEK

Ki [nM]	SMILES
< 1000	CC(C)c1ccc(Nc2nc(CN3CCO[C@H](C)C3)nc3cc(-c4ncccc4C(F)(F)F)ccc23)cc1 [Compound 684, (R)-(4-Isopropyl-phenyl)-[2-(2-methyl-morpholin-4-ylmethyl)-7-(3-trifluoromethyl-pyridin-2-yl)-quinazolin-4-yl]-amine]
< 1000	C[C@H]1CN(Cc2nc(Nc3ccc(C(C)(C)C)cc3)c3ccc(-c4ncccc4C(F)(F)F)cc3n2)CCO1 [Compound 685, (S)-(4-tert-Butyl-phenyl)-[2-(2-methyl-morpholin-4-ylmethyl)-7-(3-trifluoromethyl-pyridin-2-yl)-quinazolin-4-yl]-amine]
< 1000	C[C@H]1CN(Cc2nc(Nc3ccc(C(F)(F)F)cc3)c3ccc(-c4ncccc4C(F)(F)F)cc3n2)CCO1 [Compound 686, (S)-[2-(2-Methyl-morpholin-4-ylmethyl)-7-(3-trifluoromethyl-pyridin-2-yl)-quinazolin-4-yl]-(4-trifluoromethyl-phenyl)-amine]
< 1000	CC(C)c1ccc(Nc2nc(CN3CCO[C@@H](C)C3)nc3cc(-c4ncccc4C(F)(F)F)ccc23)cc1 [Compound 687, (S)-(4-Isopropyl-phenyl)-[2-(2-methyl-morpholin-4-ylmethyl)-7-(3-trifluoromethyl-pyridin-2-yl)-quinazolin-4-yl]-amine]
< 1000	CC(C)c1ccc(Nc2nc(CN3C[C@@H](C)O[C@@H](C)C3)nc3cc(-c4ncccc4C(F)(F)F)ccc23)cc1 [Compound 688, [2-(2,6-Dimethyl-morpholin-4-ylmethyl)-7-(3-trifluoromethyl-pyridin-2-yl)-quinazolin-4-yl]-(4-isopropyl-phenyl)-amine (cis)]
< 1000	CCN1CCC(c2nc(Nc3ccc(C(F)(F)F)cc3)c3ccc(-c4ncccc4C(F)(F)F)cc3n2)CC1 [Compound 689, [2-(1-Ethyl-piperidin-4-yl)-7-(3-trifluoromethyl-pyridin-2-yl)-quinazolin-4-yl]-(4-trifluoromethyl-phenyl)-amine]
< 1000	CCCN1CCC(c2nc(Nc3ccc(C(F)(F)F)cc3)c3ccc(-c4ncccc4C(F)(F)F)cc3n2)CC1 [Compound 690, [2-(1-Propyl-piperidin-4-yl)-7-(3-trifluoromethyl-pyridin-2-yl)-quinazolin-4-yl]-(4-trifluoromethyl-phenyl)-amine]
< 1000	FC(F)(F)c1ccc(Nc2nc(C3CCN(Cc4ccncc4)CC3)nc3cc(-c4ncccc4C(F)(F)F)ccc23)cc1 [Compound 691, [2-(1-Pyridin-4-ylmethyl-piperidin-4-yl)-7-(3-trifluoromethyl-pyridin-2-yl)-quinazolin-4-yl]-(4-trifluoromethyl-phenyl)-amine]
< 1000	Cn1ccnc1CN1CCC(c2nc(Nc3ccc(C(F)(F)F)cc3)c3ccc(-c4ncccc4C(F)(F)F)cc3n2)CC1 [Compound 692, [2-[1-(1-Methyl-1H-imidazol-2-ylmethyl)-piperidin-4-yl]-7-(3-trifluoromethyl-pyridin-2-yl)-quinazolin-4-yl]-(4-trifluoromethyl-phenyl)-amine]
< 1000	CC(=O)N1CCC(c2nc(Nc3ccc(C(F)(F)F)cc3)c3ccc(-c4ncccc4C(F)(F)F)cc3n2)CC1 [Compound 693, 1-{4-[4-(4-Trifluoromethyl-phenylamino)-7-(3-trifluoromethyl-pyridin-2-yl)-quinazolin-2-yl]-piperidin-1-yl}-ethanone]
< 1000	CCC(=O)N1CCC(c2nc(Nc3ccc(C(F)(F)F)cc3)c3ccc(-c4ncccc4C(F)(F)F)cc3n2)CC1 [Compound 694, 1-{4-[4-(4-Trifluoromethyl-phenylamino)-7-(3-trifluoromethyl-pyridin-2-yl)-quinazolin-2-yl]-piperidin-1-yl}-propan-1-one]
< 1000	FC(F)(F)c1ccc(Nc2nc([C@@H]3CCCN3)nc3cc(-c4ncccc4C(F)(F)F)ccc23)cc1 [Compound 695, (S)-[2-Pyrrolidin-2-yl-7-(3-trifluoromethyl-pyridin-2-yl)-quinazolin-4-yl]-(4-trifluoromethyl-phenyl)-amine]
< 1000	CCCN1CCC[C@H]1c1nc(Nc2ccc(C(F)(F)F)cc2)c2ccc(-c3ncccc3C(F)(F)F)cc2n1 [Compound 696, (S)-[2-(1-Propyl-pyrrolidin-2-yl)-7-(3-trifluoromethyl-pyridin-2-yl)-quinazolin-4-yl]-(4-trifluoromethyl-phenyl)-amine]
< 1000	CC(C)(C)c1ccc(Nc2nc(CN3CCCS3(=O)=O)nc3cc(-c4ncccc4C(F)(F)F)ccc23)cc1 [Compound 697, (4-tert-Butyl-phenyl)-[2-(1,1-dioxo-1λ^6-isothiazolidin-2-ylmethyl)-7-(3-trifluoromethyl-pyridin-2-yl)-quinazolin-4-yl]-amine]
< 1000	CC(=O)c1ccc(Nc2nc(CN3C[C@@H](C)O[C@@H](C)C3)nc3cc(-c4ncccc4C(F)(F)F)cnc23)cc1 [Compound 698, 1-{4-[2-(2,6-Dimethyl-morpholin-4-ylmethyl)-7-(3-trifluoromethyl-pyridin-2-yl)-pyrido[3,2-d]pyrimidin-4-ylamino]-phenyl}-ethanone (cis)]
< 1000	FC(F)(F)c1ccc(Nc2nc(Cn3ccnc3)nc3cc(-c4ncccc4C(F)(F)F)cnc23)cc1 [Compound 699, [2-Imidazol-1-ylmethyl-7-(3-trifluoromethyl-pyridin-2-yl)-pyrido[3,2-d]pyrimidin-4-yl]-(4-trifluoromethyl-phenyl)-amine]

Ki [nM]	SMILES
< 1000	FC(F)(F)c1ccc(Nc2nc(Cn3ccnc3)nc3cc(-c4ncccc4Cl)cnc23)cc1 [Compound 700, [7-(3-Chloro-pyridin-2-yl)-2-imidazol-1-ylmethyl-pyrido[3,2-d]pyrimidin-4-yl]-(4-trifluoromethyl-phenyl)-amine]
< 1000	C[C@@H]1CN(C(=O)c2nc(Nc3ccc(C(F)(F)F)cc3)c3ccc(-c4ncccc4C(F)(F)F)cc3n2)C[C@H](C)O1 [Compound 702, (2,6-Dimethyl-morpholin-4-yl)-[4-(4-trifluoromethyl-phenylamino)-7-(3-trifluoromethyl-pyridin-2-yl)-quinazolin-2-yl]-methanone (cis)]
< 1000	CS(=O)(=O)N1CCC(c2nc(Nc3ccc(C(F)(F)F)cc3)c3ccc(-c4ncccc4C(F)(F)F)cc3n2)CC1 [Compound 703, [2-(1-Methanesulfonyl-piperidin-4-yl)-7-(3-trifluoromethyl-pyridin-2-yl)-quinazolin-4-yl]-(4-trifluoromethyl-phenyl)-amine]
< 1000	CC(C)(CO)NCc1nc(Nc2ccc(C(F)(F)F)cc2)c2ccc(-c3ncccc3C(F)(F)F)cc2n1 [Compound 704, 2-Methyl-2-{[4-(4-trifluoromethyl-phenylamino)-7-(3-trifluoromethyl-pyridin-2-yl)-quinazolin-2-ylmethyl]-amino}-propan-1-ol]
< 1000	CN1CCCN(Cc2nc(Nc3ccc(C(F)(F)F)cc3)c3ccc(-c4ncccc4C(F)(F)F)cc3n2)CC1 [Compound 705, [2-(4-Methyl-[1,4]diazepan-1-ylmethyl)-7-(3-trifluoromethyl-pyridin-2-yl)-quinazolin-4-yl]-(4-trifluoromethyl-phenyl)-amine]
< 1000	CN(C)CCCN(C)Cc1nc(Nc2ccc(C(F)(F)F)cc2)c2ccc(-c3ncccc3C(F)(F)F)cc2n1 [Compound 706, N,N,N′-Trimethyl-N′-[4-(4-trifluoromethyl-phenylamino)-7-(3-trifluoromethyl-pyridin-2-yl)-quinazolin-2-ylmethyl]-propane-1,3-diamine]
< 1000	CN(C)C(=O)c1nc(Nc2ccc(C(F)(F)F)cc2)c2ccc(-c3ncccc3C(F)(F)F)cc2n1 [Compound 707, 4-(4-Trifluoromethyl-phenylamino)-7-(3-trifluoromethyl-pyridin-2-yl)-quinazoline-2-carboxylic acid dimethylamide]
< 1000	CNC(=O)c1nc(Nc2ccc(C(F)(F)F)cc2)c2ccc(-c3ncccc3C(F)(F)F)cc2n1 [Compound 708, 4-(4-Trifluoromethyl-phenylamino)-7-(3-trifluoromethyl-pyridin-2-yl)-quinazoline-2-carboxylic acid methylamide]
< 1000	O=C(NCCN1CCOCC1)c1nc(Nc2ccc(C(F)(F)F)cc2)c2ccc(-c3ncccc3C(F)(F)F)cc2n1 [Compound 709, 4-(4-Trifluoromethyl-phenylamino)-7-(3-trifluoromethyl-pyridin-2-yl)-quinazoline-2-carboxylic acid (2-morpholin-4-yl-ethyl)-amide]
< 1000	C[C@@H]1CN(Cc2nc(Nc3ccc(C4CC4)cc3)c3ccc(-c4ncccc4C(F)(F)F)cc3n2)C[C@H](C)O1 [Compound 710, (4-Cyclopropyl-phenyl)-[2-(2,6-dimethyl-morpholin-4-ylmethyl)-7-(3-trifluoromethyl-pyridin-2-yl)-quinazolin-4-yl]-amine (cis)]
< 1000	Cc1cccnc1-c1ccc2c(Nc3ccc(C(C)C)cc3)nc(CN(C)C)nc2c1 [Compound 711, [2-Dimethylaminomethyl-7-(3-methyl-pyridin-2-yl)-quinazolin-4-yl]-(4-isopropyl-phenyl)-amine]
< 1000	Cc1cccnc1-c1ccc2c(Nc3ccc(C(C)C)cc3)nc(CN3CCOCC3)nc2c1 [Compound 712, (4-Isopropyl-phenyl)-[7-(3-methyl-pyridin-2-yl)-2-morpholin-4-ylmethyl-quinazolin-4-yl]-amine]
< 1000	Cc1cccnc1-c1ccc2c(Nc3ccc(C(C)C)cc3)nc(CN3CCSCC3)nc2c1 [Compound 713, (4-Isopropyl-phenyl)-[7-(3-methyl-pyridin-2-yl)-2-thiomorpholin-4-ylmethyl-quinazolin-4-yl]-amine]
< 1000	Cc1cccnc1-c1ccc2c(Nc3ccc(C(C)C)cc3)nc(CN3CCCC(C)(C)C3)nc2c1 [Compound 714, [2-(3,3-Dimethyl-piperidin-1-ylmethyl)-7-(3-methyl-pyridin-2-yl)-quinazolin-4-yl]-(4-isopropyl-phenyl)-amine]
< 1000	CCCN(CC)Cc1nc(Nc2ccc(C(C)C)cc2)c2ccc(-c3ncccc3C)cc2n1 [Compound 715, [2-[(Ethyl-propyl-amino)-methyl]-7-(3-methyl-pyridin-2-yl)-quinazolin-4-yl]-(4-isopropyl-phenyl)-amine]
